Results: the supplement of paper PMC11061612

Assays:
Carboplatin = compound: C1CC(C1)(C(=O)[O-])C(=O)[O-].N.N.[Pt+2] [Carboplatin]; details: max 10 µM
Procedure, shortened: (§1)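 Cancer cell lines were dosed for 72 hours (final DMSO typically 0.2%) after 24 hours at 37°C and 5% CO2 in 1536-well plates containing 7.5 μl DMEM/F12 or RPMI with 10% FBS. Viability came from CellTiter-Glo 2.0 luminescence, scaled between blank-well and DMSO-well means, and dose responses were fitted to a two-parameter logistic curve with a non-linear mixed effects model. The single-agent IC50 was obtained from this fit.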

AZD5363 = compound: C1CN(CCC1(C(=O)N[C@@H](CCO)C2=CC=C(C=C2)Cl)N)C3=NC=NC4=C3C=CN4 [AZD5363]; details: max 10 µM
Procedure, shortened: as §1

AZD1775 = compound: C=CCn1c(=O)c2cnc(Nc3ccc(N4CCN(C)CC4)cc3)nc2n1-c1cccc(C(C)(C)O)n1 [AZD1775]; details: max 3 µM
Procedure, shortened: as §1

Trametinib = compound: CC(=O)Nc1cccc(-n2c(=O)n(C3CC3)c(=O)c3c(Nc4ccc(I)cc4F)n(C)c(=O)c(C)c32)c1 [Trametinib]; details: max 1 µM
Procedure, shortened: as §1

Paclitaxel = compound: CC(=O)O[C@H]1C(=O)[C@@]2(C)[C@H]([C@H](OC(=O)c3ccccc3)[C@]3(O)C[C@H](OC(=O)[C@H](O)[C@@H](NC(=O)c4ccccc4)c4ccccc4)C(C)=C1C3(C)C)[C@]1(OC(C)=O)CO[C@@H]1C[C@@H]2O [Paclitaxel]; details: max 3 µM
Procedure, shortened: as §1

Palbociclib = compound: CC(=O)c1c(C)c2cnc(Nc3ccc(N4CCNCC4)cn3)nc2n(C2CCCC2)c1=O [Palbociclib]; details: max 10 µM
Procedure, shortened: as §1

AZD1390 = compound: CC(C)n1c(=O)n(C)c2cnc3cc(F)c(-c4ccc(OCCCN5CCCCC5)nc4)cc3c21 [AZD1390]; details: max 0.3 µM
Procedure, shortened: as §1

Venetoclax = compound: CC1(C)CCC(CN2CCN(c3ccc(C(=O)NS(=O)(=O)c4ccc(NCC5CCOCC5)c([N+](=O)[O-])c4)c(Oc4cnc5[nH]ccc5c4)c3)CC2)=C(c2ccc(Cl)cc2)C1 [Venetoclax]; details: max 1 µM
Procedure, shortened: as §1

Dasatinib = compound: CC1=C(C(=CC=C1)Cl)NC(=O)C2=CN=C(S2)NC3=CC(=NC(=N3)C)N4CCN(CC4)CCO [Dasatinib]; details: max 2 µM
Procedure, shortened: as §1

SG3199 = compound: CC1=CN2[C@@H](C1)C=NC3=CC(=C(C=C3C2=O)OC)OCCCCCOC4=C(C=C5C(=C4)N=C[C@@H]6CC(=CN6C5=O)C)OC [SG3199]; details: max 0.001 µM
Procedure, shortened: as §1

AZD2811 = compound: CCN(CCO)CCCOc1ccc2c(Nc3cc(CC(=O)Nc4cccc(F)c4)[nH]n3)ncnc2c1 [AZD2811]; details: max 1 µM
Procedure, shortened: as §1

SN-38 = compound: CCc1c2c(nc3ccc(O)cc13)-c1cc3c(c(=O)n1C2)COC(=O)[C@]3(O)CC [SN-38]; details: max 0.3 µM
Procedure, shortened: as §1

AZD0156 = compound: CN(C)CCCOc1ccc(-c2ccc3ncc4c(c3c2)n(C2CCOCC2)c(=O)n4C)cn1 [AZD0156]; details: max 3 µM
Procedure, shortened: as §1

AZD4320 = compound: CN(CC[C@H](CSC1=CC=CC=C1)NC2=C(C=C(C=C2)S(=O)(=O)NC(=O)C3=CC=C(C=C3)N4CCC(CC4)[C@H](C5=CC=CC=C5C6=CC=C(C=C6)Cl)O)S(=O)(=O)C(F)(F)F)CCO [AZD4320]; details: max 1 µM
Procedure, shortened: as §1

Alisertib = compound: COc1cc(Nc2ncc3c(n2)-c2ccc(Cl)cc2C(c2c(F)cccc2OC)=NC3)ccc1C(=O)O [Alisertib]; details: max 10 µM
Procedure, shortened: as §1

Etoposide = compound: COc1cc([C@@H]2c3cc4c(cc3[C@@H](O[C@@H]3O[C@@H]5CO[C@@H](C)O[C@H]5[C@H](O)[C@H]3O)[C@H]3COC(=O)[C@H]23)OCO4)cc(OC)c1O [Etoposide]; details: max 10 µM
Procedure, shortened: as §1

Gefitinib = compound: COc1cc2ncnc(Nc3ccc(F)c(Cl)c3)c2cc1OCCCN1CCOCC1 [Gefitinib]; details: max 10 µM
Procedure, shortened: as §1

Prexasertib = compound: COc1cccc(OCCCN)c1-c1cc(Nc2cnc(C#N)cn2)n[nH]1 [Prexasertib]; details: max 1 µM
Procedure, shortened: as §1

Doxorubicin = compound: COc1cccc2c1C(=O)c1c(O)c3c(c(O)c1C2=O)C[C@@](O)(C(=O)CO)C[C@@H]3O[C@H]1C[C@H](N)[C@H](O)[C@H](C)O1 [Doxorubicin]; details: max 1 µM
Procedure, shortened: as §1

AZD5153 = compound: COc1nnc2ccc(N3CCC(c4ccc(OCCN5CCN(C)C(=O)[C@H]5C)cc4)CC3)nn12 [AZD5153]; details: max 1 µM
Procedure, shortened: as §1

Lapatinib = compound: CS(=O)(=O)CCNCc1ccc(-c2ccc3ncnc(Nc4ccc(OCc5cccc(F)c5)c(Cl)c4)c3c2)o1 [Lapatinib]; details: max 10 µM
Procedure, shortened: as §1

AZD8186 = compound: C[C@@H](Nc1cc(F)cc(F)c1)c1cc(C(=O)N(C)C)cc2c(=O)cc(N3CCOCC3)oc12 [AZD8186]
Procedure, shortened: as §1

Crizotinib = compound: C[C@@H](Oc1cc(-c2cnn(C3CCNCC3)c2)cnc1N)c1c(Cl)ccc(F)c1Cl [Crizotinib]; details: max 10 µM
Procedure, shortened: as §1

Savolitinib = compound: C[C@@H](c1ccc2nccn2c1)n1nnc2ncc(-c3cnn(C)c3)nc21 [Savolitinib]; details: max 1 µM
Procedure, shortened: as §1

AZD6738 = compound: C[C@@H]1COCCN1C2=NC(=NC(=C2)C3(CC3)[S@](=N)(=O)C)C4=C5C=CNC5=NC=C4 [AZD6738]; details: max 10 µM
Procedure, shortened: as §1

AZD5991 = compound: Cc1c2c(nn1C)CSCc1cc(n(C)n1)CSc1cc(c3ccccc3c1)OCCCc1c(C(=O)O)n(C)c3c-2c(Cl)ccc13 [AZD5991]; details: max 1 µM
Procedure, shortened: as §1

AZD7648 = compound: Cc1cc2ncnn2cc1Nc1ncc2c(n1)n(C1CCOCC1)c(=O)n2C [AZD7648]; details: max 10 µM
Procedure, shortened: as §1

Taselisib = compound: Cc1nc(-c2cn3c(n2)-c2ccc(-c4cnn(C(C)(C)C(N)=O)c4)cc2OCC3)n(C(C)C)n1 [Taselisib]; details: max 10 µM
Procedure, shortened: as §1

Selumetinib = compound: Cn1cnc2c(F)c(Nc3ccc(Br)cc3Cl)c(C(=O)NOCCO)cc21 [Selumetinib]; details: max 10 µM
Procedure, shortened: as §1

SRA737 = compound: N#Cc1cnc(Nc2cc(NC[C@H]3CNCCO3)c(C(F)(F)F)cn2)cn1 [SRA737]; details: max 10 µM
Procedure, shortened: as §1

MK-2206 = compound: NC1(c2ccc(-c3nc4ccn5c(=O)[nH]nc5c4cc3-c3ccccc3)cc2)CCC1 [MK-2206]; details: max 10 µM
Procedure, shortened: as §1

[1] = compound: O=C(Nc1ccc2[nH]nc(-c3ccncc3)c2c1)[C@@H]1CCN(CC(=O)N2CCN(c3ccc(-c4ncccn4)cc3)CC2)C1; details: max 5 µM
Procedure, shortened: as §1

Olaparib = compound: O=C(c1cc(Cc2n[nH]c(=O)c3ccccc23)ccc1F)N1CCN(C(=O)C2CC2)CC1 [Olaparib]; details: max 10 µM
Procedure, shortened: as §1

5-Fluorouracil = compound: O=c1[nH]cc(F)c(=O)[nH]1 [5-Fluorouracil]; details: max 20 µM
Procedure, shortened: as §1

Capivasertib = compound: C1CN(CCC1(C(=O)N[C@@H](CCO)C2=CC=C(C=C2)Cl)N)C3=NC=NC4=C3C=CN4 [Capivasertib]; details: max 10 µM
Procedure, shortened: as §1

Cell Line | IC50, cell viability 72 h (Carboplatin) | IC50, cell viability 72 h (AZD5363) | IC50, cell viability 72 h (AZD1775) | IC50, cell viability 72 h (Trametinib) | IC50, cell viability 72 h (Paclitaxel) | IC50, cell viability 72 h (Palbociclib) | IC50, cell viability 72 h (AZD1390) | IC50, cell viability 72 h (Venetoclax) | IC50, cell viability 72 h (Dasatinib) | IC50, cell viability 72 h (SG3199) | IC50, cell viability 72 h (AZD2811) | IC50, cell viability 72 h (SN-38) | IC50, cell viability 72 h (AZD0156) | IC50, cell viability 72 h (AZD4320) | IC50, cell viability 72 h (Alisertib) | IC50, cell viability 72 h (Etoposide) | IC50, cell viability 72 h (Gefitinib) | IC50, cell viability 72 h (Prexasertib) | IC50, cell viability 72 h (Doxorubicin) | IC50, cell viability 72 h (AZD5153) | IC50, cell viability 72 h (Lapatinib) | IC50, cell viability 72 h (AZD8186; max 10 µM) | IC50, cell viability 72 h (Crizotinib) | IC50, cell viability 72 h (Savolitinib) | IC50, cell viability 72 h (AZD6738) | IC50, cell viability 72 h (AZD5991) | IC50, cell viability 72 h (AZD7648) | IC50, cell viability 72 h (Taselisib) | IC50, cell viability 72 h (Selumetinib) | IC50, cell viability 72 h (SRA737) | IC50, cell viability 72 h (MK-2206) | IC50, cell viability 72 h [1] | IC50, cell viability 72 h (Olaparib) | IC50, cell viability 72 h (5-Fluorouracil) | IC50, cell viability 72 h (Capivasertib) | IC50, cell viability 72 h (AZD8186; max 3 µM)
KP-4 (Pancreatic Carcinoma) | > 10000 nM | > 10000 nM | 1340 nM | > 1000 nM | 6.9 nM | > 10000 nM | > 300 nM | > 1000 nM | > 2000 nM | > 1 nM | > 1000 nM | 31.6 nM | > 3000 nM | > 1000 nM | 5350 nM | 1730 nM | > 10000 nM | > 1000 nM | > 1000 nM | 818 nM | > 10000 nM | > 10000 nM | 2720 nM | > 1000 nM | > 10000 nM | > 1000 nM | > 10000 nM | > 10000 nM | > 10000 nM | > 10000 nM | > 10000 nM | > 5000 nM | > 10000 nM | > 20000 nM | – | –
NCI-H596 (Other Solid Carcinomas) | – | – | 1450 nM | > 1000 nM | – | > 10000 nM | > 300 nM | > 1000 nM | > 2000 nM | > 1 nM | > 1000 nM | > 300 nM | > 3000 nM | > 1000 nM | > 10000 nM | – | > 10000 nM | 866 nM | > 1000 nM | 301 nM | > 10000 nM | – | > 10000 nM | > 1000 nM | > 10000 nM | > 1000 nM | > 10000 nM | 4950 nM | > 10000 nM | – | > 10000 nM | – | > 10000 nM | – | > 10000 nM | > 3000 nM
NCI-H1876 (Small Cell Lung Carcinoma) | – | – | 330 nM | > 1000 nM | – | > 10000 nM | > 300 nM | > 1000 nM | > 2000 nM | > 1 nM | 149 nM | 1.03 nM | > 3000 nM | 176 nM | 265 nM | – | > 10000 nM | 29.2 nM | 221 nM | > 1000 nM | > 10000 nM | – | 5910 nM | > 1000 nM | 4710 nM | > 1000 nM | > 10000 nM | 3900 nM | > 10000 nM | – | > 10000 nM | – | 4440 nM | – | > 10000 nM | > 3000 nM
OAW-28 (Ovarian Carcinoma) | – | – | > 3000 nM | > 1000 nM | – | > 10000 nM | > 300 nM | > 1000 nM | > 2000 nM | > 1 nM | > 1000 nM | 11.4 nM | > 3000 nM | 176 nM | > 10000 nM | – | > 10000 nM | 720 nM | > 1000 nM | > 1000 nM | > 10000 nM | – | > 10000 nM | > 1000 nM | > 10000 nM | > 1000 nM | > 10000 nM | 6130 nM | > 10000 nM | – | > 10000 nM | – | > 10000 nM | – | > 10000 nM | > 3000 nM
SNU-407 (Colorectal Carcinoma) | – | – | 1570 nM | 74.3 nM | – | > 10000 nM | > 300 nM | > 1000 nM | > 2000 nM | > 1 nM | > 1000 nM | 160 nM | > 3000 nM | > 1000 nM | 1150 nM | – | > 10000 nM | 458 nM | > 1000 nM | 62.9 nM | > 10000 nM | – | > 10000 nM | > 1000 nM | 4120 nM | > 1000 nM | > 10000 nM | 365 nM | 2560 nM | – | > 10000 nM | – | > 10000 nM | – | 6340 nM | > 3000 nM
WM35 (Melanoma) | – | – | > 3000 nM | 16.6 nM | – | > 10000 nM | > 300 nM | > 1000 nM | > 2000 nM | > 1 nM | > 1000 nM | 210 nM | > 3000 nM | > 1000 nM | > 10000 nM | – | > 10000 nM | 134 nM | > 1000 nM | > 1000 nM | > 10000 nM | – | > 10000 nM | > 1000 nM | > 10000 nM | > 1000 nM | > 10000 nM | > 10000 nM | 1090 nM | – | – | – | > 10000 nM | – | > 10000 nM | > 3000 nM
